Laboratory results: patent US20230103444A1 (The Regents of the University of Colorado, a Body Corporate, priority 2020, published 2023)
Entries after “also recorded” stand apart in the source; their conditions may differ.

Columns and labels:
[1] = tested on: HCT-116 and DLD1CHD1L-OE cells; test: Clonogenic colony formation after 24 h pretreatment (CSC stemness); type: cell-based, human; settings: colonies over 10 days
Experimental: To assess CHD1L inhibitors for their ability to suppress CSC stemness, HCT-116 or CHD1L overexpressing DLD1 cell lines were pre-treated in monolayer cultures for 24 h with vehicle control (0.5% DMSO) or CHD1L inhibitors at the concentrations indicated in FIG. 2C. Pretreated viable cells were plated at 1,000 cells/well in 6-well plates or 200 cells/well in a 24-well plates. Colonies were analyzed using the IncuCyte® S3 2018A (Sartorius, France) software (with the following parameters modified from default: (1) for HCT116 cells segmentation adjustment=0.6; Min area (μm2)=3×104; Max area (μm2)=1.6×106; Max eccentricity=0.9; (2) for DLD1CHD1L OE cells segmentation adjustment=1; Min area (μm2)=1×104; Max area was not constrained; Max eccentricity=0.95. Experiments were replicated 2× (n=2 for each experiment).

[2] = tested on: E-cadherin promoter activity; test: EcadPro-RFP reporter 3D high-content imaging in tumor organoids; type: cell-based; settings: 72 h; for EC50: Homo sapiens, SW-620, read-out: EC50 upregulation of E-cadherin promoter activity, SW620 tumor organoids
Experimental: After validating hits 5-7 against CHD1L mediated TCF transcription, the ability of these compounds to reverse EMT and other malignant properties in CRC were evaluated. E-cadherin and vimentin are putative biomarkers for the epithelial and mesenchymal phenotypes, respectively. [McDonald et al., 2015] Loss of E-cadherin and gain of vimentin are also clinical biomarkers of poor prognosis. [Yun et al., 2014; Richardson et al., 2012; Dhanasekaran et al., 2001; Kashiwagi et al., 2010; Toiyama et al., 2013] Accordingly, lentiviral promoter driven reporters for E-cadherin (pCDH1-EcadPro-RFP) and vimentin (pCDH1-VimPro-GFP) were developed, which faithfully report E-cadherin and vimentin protein expression, respectively. [Zhou et al., 2016; Abraham et al., 2019] SW620 cells transduced with either EcadPro-RFP or VimPro-GFP were cultured as tumor organoids for 72 h, reaching a diameter of 600 μm. Tumor organoids were treated with compounds 5-7 for an additional 72 h to determine the effective concentration 50 percent (EC50) for modulating promoter activity. Changes in promoter expression was quantified using a 3D confocal image […] based high-content analysis algorithm (FIG. 2A-2B). [Zhou et al., 2016; Abraham et al., 2019]
CHD1L has been reported to confer anti-apoptotic activity by inhibiting activation of caspase-dependent apoptosis. [Li et al., 2013; Sun et al., 2016] Additionally, reversal or inhibition of EMT is known to restore apoptotic activity of cancer cells. [Lu et al., 2014] To determine if CHD1L inhibitors reverse EMT prior to induction of cell death, E-cadherin expression by EcadPro-RFP reporter activity was monitored and cytotoxicity was measured using the CellTox™ Green assay. Cells were treated with CHD1L inhibitors for 72 h and imaged every 2 h.
Stable VimPro-GFP or EcadPro-RFP SW620 reporter cells were generated using pCDH imPro-GFP-EF1-puro virus or pCDH-EcadPro-mCherry-EF1-puro virus as previously reported. [Zhou et al., 2016; Abraham et al., 2019] The stable fluorescently labeled reporter cells were used to generate tumor organoids as described herein. Tumor organoids were treated with CHD1L inhibitors at 10 μM for an additional 72 h. Following treatment, tumor organoids were stained with 16 μM of Hoechst 33342 for 1 h (nuclei stain). Images were taken with a 5× air objective. Z-stacks were set at 26.5 μm apart for a total of 15 optical slices. Imaging and high-content analysis were performed using an Opera Phenix™ and Harmony® software (PerkinElmer, Hopkinton, Mass.). Nuclei were identified within each layer and cells were found with either GFP or mCherry channel. The fluorescence intensities of each channel were calculated and thresholds were set based on the background intensities. Percentages of GFP or mCherry RFP positive cells were calculated and normalized to the DMSO treated group.
3D High-Content Imaging and Analysis of EMT Dual-Reporter Activity. Tumor organoids were imaged using the Opera Phenix high-content screening system (PerkinElmer) in confocal mode utilizing a 10× air objective (NA 0.3). The following excitation and emission (Ex/Em) wavelengths were employed: RFP (561/570-630) and GFP (488/500-550). Organoids were also imaged in Brightfield to segment and perform high-content analysis of dual reporter specific fluorescence intensity. RFP fluorescent signal correlates with E-Cadherin promoter activity, while GFP fluorescent signal is correlates with vimentin promoter activity. Both fluorescent signals were quantified and normalized as previously described. (Esquer, et al., 2021)

SW620 tumor organoids = test: Synergy studies with SN38 (LOEWE synergy scores); type: cell-based, human; parameters: key to LOEWE Synergy Score: % response beyond expectation; <-10 antagonism, -10–10 additive, >10 synergy; settings: for LOEWE Synergy Score: compound at its IC50 (6: 5 μM; 6.3, 6.11: 3 μM)
Experimental: Cell based cytotoxicity dose response and combination studies. […] Plates were then incubated for 3 days before treatment.
(e.g., synergy score 20 corresponds to 20% of response beyond expectation). According to our experience, the synergy scores near 0 gives limited confidence on synergy or antagonism.
When the synergy score is: • Less than −10: the interaction between two drugs is likely to be antagonism; • From −10 to 10: the interaction between two drugs is likely to be additivity; • Larger than 10: the interaction between two drugs is likely to be synergy.

SMILES	inhibition of CSC stemness (clonogenic colony formation), in words [1]	EC50 [2] [µM]	LOEWE Synergy Score (SW620 tumor organoids; SN38 0.64 nM)	LOEWE Synergy Score (SW620 tumor organoids; SN38 16 nM)	LOEWE Synergy Score (SW620 tumor organoids; SN38 80 nM)	LOEWE Synergy Score (SW620 tumor organoids; SN38 400 nM)	LOEWE Synergy Score (SW620 tumor organoids; SN38 2000 nM)	LOEWE Synergy Score (SW620 tumor organoids; SN38 10000 nM)	LOEWE Synergy Score (SW620 tumor organoids; SN38 […])	synergism with irinotecan (and SN38), in words (SW620 tumor organoids; killing SW620 tumor organoids)	inhibition of CSC stemness (clonogenic colony formation), in words ([1]; listed as 6.0)	E-cadherin expression before onset of cytotoxicity ([2]; EcadPro-RFP reporter and CellTox Green, imaged every 2 h, relative to DMSO)	potency of SN38 combination relative to SN38 alone (SW620 tumor organoids; killing SW620 tumor organoids) [fold]	upregulation of E-cadherin promoter activity (EcadPro-RFP), in words ([2]; SW620 or HCT116 tumor organoids)
COc1ccc(-c2nc(S(=O)(=O)c3ccccc3)c(S(C)(=O)=O)o2)cc1 [Compound 5]	more potent dose dependent inhibition	11.9 ± 0.3	–	–	–	–	–	–	–	–	–	–	–	–
Cc1cc(Nc2ccc(NC(=O)Cc3cccs3)cc2)nc(N2CCCC2)n1 [Compound 6, N-(4-((6-methyl-2-(pyrrolidin-1-yl)pyrimidin-4-yl)amino)phenyl)-2-(thiophen-2-yl)acetamide]	–	11.4 ± 0.3	−5	35	45	41	28	16	36	synergism	more potent dose dependent inhibition; also recorded: significantly inhibits CSC stemness	significant increase in E-cadherin expression prior to induction of cytotoxicity	–	–
Cc1cc(Nc2ccc(NC(=O)c3c[nH]c4ccccc34)cc2)nc(N2CCCC2)n1 [Compound 6.3, N-(4-((6-methyl-2-(pyrrolidin-1-yl)pyrimidin-4-yl)amino)phenyl)-1H-indole-3-carboxamide]	significantly inhibits clonogenic colony formation	–	4	36	54	48	35	25	31	synergism	–	–	150	upregulation of E-cadherin promoter activity
